Key:
[1] = test system: primary rat hepatocytes; assay: Cytotoxicity of compound alone (ApoTox-Glo Triplex / LDH Cytotoxicity Detection Kit); format: cell-based
Method: Primary rat hepatocytes were isolated from male rats (100-150 grams) by collagenase perfusion (as described by Solá S, et al., 2003, Journal of Biological Chemistry 278: 48831-48838)). Briefly, rats were anesthetized with phenobarbital sodium (100 mg/kg body weight) injected into the peritoneal cavity. After administration of heparin (200 units/kg body weight) in the tail vein, the animal's abdomen was opened and the portal vein exposed and cannulated. The liver was then perfused at 37° C. in situ with a calcium-free Hanks' Balanced Salt Solution (HBSS) for about 10 minutes, and then with 0.05% collagenase type IV in calcium-present HBSS for another 10 minutes. Hepatocyte suspensions were obtained by passing collagenase-digested livers through 125 μm gauze and washing cells in Complete William's E medium (William's E medium, Sigma-Aldrich Corp., St Louis, Mo., USA) supplemented with 26 mM sodium bicarbonate, 23 mM HEPES, 0.01 units/mL insulin, 2 mM L-glutamine, 10 nM dexamethasone, 100 units/mL penicillin, and 10% heat-inactivated fetal bovine serum (Invitrogen Corp., Carlsbad, Calif., USA). Viable primary rat hepatocytes were enriched by low-speed centrifugation at 200 g for 3 minutes. Cell viability was determined by trypan blue exclusion and was typically 80-85%. After isolation, hepatocytes were resuspended in Complete William's E medium and plated on Primaria™ tissue culture dishes (BD Biosciences, San Jose, Calif., USA) at 5×10^4 cells/cm^2. Cells were maintained at 37° C. in a humidified atmosphere of 5% CO2 for 6 hours to allow attachment. Plates were then washed with medium to remove dead cells and incubated in Complete William's E medium supplemented with either 100-400 μM UDCA (Sigma-Aldrich Corp.), 100-400 μM deuterated UDCA (compound 5), or no addition (control). Eight hours after pre-incubation, cells were exposed to 1 nM recombinant human TGF-β1 (R&D Systems Inc., Minneapolis, Minn., USA) for 36 hours, or to 50 or 100 μM DCA for 16 hours before processing for cell viability, cytotoxicity and apoptosis assays.
(§1) The ApoTox-Glo™ Triplex Assay (Promega Corp., Madison, Wis., USA) was used to evaluate cell viability, cytotoxicity and caspase-3/7 activity, according to the manufacturer's protocol, using a GloMax+ Multi Detection System (Promega Corp.). General cell death was also evaluated using the lactate dehydrogenase (LDH) Cytotoxicity Detection Kit^PLUS (Roche Diagnostics GmbH, Mannheim, Germany), following the manufacturer's instructions.

[2] = test system: primary rat hepatocytes; assay: TGF-β1-induced cytotoxicity, LDH release; format: cell-based; conditions: 1 nM TGF-β1 36 hours; 100 μM compound; FIG. 8A
Method: Primary rat hepatocytes were isolated from male rats (100-150 grams) by collagenase perfusion (as described by Solá S, et al., 2003, Journal of Biological Chemistry 278: 48831-48838)). Briefly, rats were anesthetized with phenobarbital sodium (100 mg/kg body weight) injected into the peritoneal cavity. After administration of heparin (200 units/kg body weight) in the tail vein, the animal's abdomen was opened and the portal vein exposed and cannulated. The liver was then perfused at 37° C. in situ with a calcium-free Hanks' Balanced Salt Solution (HBSS) for about 10 minutes, and then with 0.05% collagenase type IV in calcium-present HBSS for another 10 minutes. […] Cell viability was determined by trypan blue exclusion and was typically 80-85%. […]
as §1, with “instructions. […]” for “instructions.”

For “7,8-[^2H]-3α,7α-dihydroxy-5β-cholan-24-oic acid/7-[^2H]-3α,7α-dihydroxy-5β-cholan-24-oic acid [Compound 5]”, the “cytotoxicity compared with UDCA” value ([1]; 400 μM, 24 and 44 hours) was “comparable to UDCA cytotoxicity”, the increase in cytotoxicity ([1]; 400 μM, 24 hours) was roughly 2% and the increase in cytotoxicity ([1]; 400 μM, 44 hours) was roughly 15%. The signs of cytotoxicity ([1]; 100 and 200 μM) was “no relevant signs of cytotoxicity” and the “more effective than UDCA at inhibiting TGF-β1-induced LDH release” value [2] was “about 10%”.
